{
  "source": "patent US20240173325A1",
  "about": "“METHODS FOR TREATING SPINAL MUSCULAR ATROPHY” (Genentech, Inc., priority 2022, published 2024)",
  "key": {"[1]": {"assay": "Treatment emergent adverse events and safety monitoring of carrier, fetal subject and neonatal subject", "format": "in vivo, human", "set-up": "key to Serious (Y/N) / Study Term (Y/N): “Y” refers to yes; “N” refers to no", "conditions": "for Adverse Event or MedDRA Term: exposed in utero, oral 0.15 mg/kg from 8 days post-birth, 0.15 mg/kg", "from_the_text": "X1 included routine monitoring of the carrier for the third trimester, specifically with regards to development of hypertension and features of pre-eclampsia or HELLP syndrome, with related blood and urine testing. X1 also included monitoring nausea, vomiting, or dehydration in the carrier and placental integrity and amniotic fluid volume. X1 further included fetal monitoring for fetal growth, organ system development, and fetal well- being and any signs of organ maldevelopment, especially in the brain, heart, kidney, and liver. A baseline pre-treatment full anatomical ultrasound study and growth scan were performed and subsequent ultrasonography occurred at three and six weeks before delivery of the fetal subject as the neonatal subject.\nAlso in Table 3, “X2” included safety labs for the carrier, such as the CBC screening, the CMP screening, and the UA, to assess potential toxicity from risdiplam, which were collected before dosing and then prior to delivery. The safety labs were collected at the baseline before dosing, then every 3-4 weeks up to delivery, including pre-operatively prior to the scheduled cesarean section. More frequent testing may occur if clinically indicated.\nIn Table 4, the “X5” post-delivery PK/PD collection and safety labs of the neonatal subject included CBC screening, CMP screening, and UA, and such safety labs could be repeated if the results are deemed abnormal as compared to a healthy individual.\nTable 5 summarizes results of the carrier and the fetal subject clinical assessments during the pregnancy of the carrier when exposed to risdiplam and in the neonatal subject for 6 weeks following delivery, for a minimum of 30 days following the last dose of risdiplam.\nSpecifically, Table 5 depicts the treatment emergent adverse events, seriousness of the event, intensity of the adverse event, relatedness of the adverse event to administration of the risdiplam, study term, and start and end dates for the adverse event the detected from this Example.\nEach adverse event term is associated with a Medical Dictionary for Regulatory Activity (or MedDRA) term and the intensity is categorized based on the CTCAE grading. In Table 5, “Y” refers to yes and “N” refers to no and the intensity is measured from a lowest level of intensity or “I” to a highest level of intensity or “V.” “VSD” is a ventricular septal defect, “GERD” is gastroesophageal reflux disease, and “NICU” refers to neonatal intensive care unit."}, "neonatal subject": {"system": "neonatal subject", "assay": "Electrophysiological testing (CMAP, MUNE)", "format": "in vivo, human", "method": "The electrophysiological testing described in this Example can serve as a prognostic biomarker. See Pino (2021) Biomark. Insights. 16:11772719211035643. Electrophysiological studies were performed using standard technique on a Natus UltraPro S100 instrument, with Natus pre-gelled disposable surface electrodes (#901350242) and standard settings for motor nerve conduction studies (LFF 10 Hz and HFF […]). The right ulnar nerve was stimulated at the elbow and recorded from the abductor digiti minimi (ADM) and the peroneal (fibular) nerve was stimulated at the knee and recorded from the tibialis anterior (TA) muscle.\nElectrophysiological measurements, such as the compound muscle action potential (CMAP) in millivolts (mV) and motor unit number estimation (MUNE), monitor the functional status of the motor unit pool and are particularly pertinent to motor neuron disorders. See Arnold (2014) Ann. Clin. Transl. Neurol. 1(1):34:44. Cross-sectional studies have shown that CMAP and MUNE correlate with other measures of motor function, clinical severity, and overall function. See Arnold (2014) Ann. Clin. Transl. Neurol. 1(1):34:44.\nThe CMAP response measures the output of the motor units supplying a particular muscle or group of muscles. The CMAP size is determined by the size and number of depolarized muscle fibers following supramaximal nerve stimulation. Three active electrode placements were used for each nerve tested and the maximal amplitude of the negative peak of the CMAP was used for analysis. As a reference study for the CMAP data provided in Table 6, an ongoing Phase 2, open-label study (NURTURE) aims to evaluate the safety and efficacy of nusinersen in preventing or profoundly attenuating the severity of SMA when initiated prior to the onset of symptoms. See De Vivo (2019) Neuromuscul. Disord. 29(11):842-856. In accordance with this reference study, CMAP amplitudes were mean (SD) 2.7 (1.5) and median (range) 2.3 (1.0-6.7) and NeuroNEXT (typically developing infants) was mean (SD) 5.5±2.0. See Kolb (2016) Ann. Clin. Transl. Neurol. 3(2):132-45.\nMUNE is an electrophysiological method that can measure the number of motor units supplying a particular muscle. It should be appreciated that the “N” of MUNE (ulnar N) in Table 6 refers to “nerve.” For pre-symptomatic SMA neonates, MUNE (ulnar N) ranges from 70-270. See Bromberg (2002) Muscle Nerve. 25(3):445-7; and Swoboda (2005) Ann Neurol. 57(5):704-12. In this Example, the MUNE was performed on the right ulnar nerve using the multipoint technique. A minimum of ten unique single motor unit potentials were captured with the mean value used for the calculation of the MUNE. […] See Swoboda, et al. (2005) Ann. Neurol. 57:704-712; and Bromberg (2002) Muscle Nerve 25:445-447."}},
  "note": "“Also recorded” adds a separate entry of the source.",
  "data": [
    {"compound": "Cc1cn2nc(-c3cc(=O)n4cc(N5CCNC6(CC6)C5)ccc4n3)cc(C)c2n1", "note": "[risdiplam, 7-(4,7-diazaspiro[2.5]octan-7-yl)-2-(2,8-dimethylimidazo[1,2-b]pyridazin-6-yl)-4H-pyrido[1,2-a]pyrimidin-4-one]", "values": [
      {"measurement": "Serious (Y/N)", "setting": "[1]; carrier adverse events", "value": "N"},
      {"measurement": "Study Term (Y/N)", "setting": "[1]; carrier adverse events", "value": "N"},
      {"measurement": "Overall safety and tolerability", "setting": "[1]; carrier and subject as fetal and neonatal subject", "value": "no drug-related adverse events; also recorded: safe and well tolerated"},
      {"measurement": "Surveillance labs during pregnancy", "setting": "[1]; carrier while on risdiplam", "value": "normal until proteinuria was detected at 36WG"},
      {"measurement": "Fetal ultrasound assessments", "setting": "[1]; fetal subject during carrier treatment", "value": "unremarkable"},
      {"measurement": "Biophysical profiles", "setting": "[1]; fetal subject, each time point", "value": "normal"},
      {"measurement": "CBC, CMP, and U/A", "setting": "[1]; neonatal subject", "value": "normal"},
      {"measurement": "Study Term (Y/N)", "setting": "[1]; neonatal subject adverse events", "value": "N"},
      {"measurement": "Adverse Event or MedDRA Term", "setting": "[1]; neonatal subject, adverse event number 1", "value": "Respiratory"},
      {"measurement": "Adverse Event or MedDRA Term", "setting": "[1]; neonatal subject, adverse event number 2", "value": "Congenital disorder"},
      {"measurement": "Adverse Event or MedDRA Term", "setting": "[1]; neonatal subject, adverse event number 3", "value": "Weight gain"},
      {"measurement": "MUNE (Ulnar N)", "setting": "neonatal subject; 1 week", "value": 167},
      {"measurement": "Peroneal N CMAP", "setting": "neonatal subject; 1 week", "value": 2.7, "unit": "mV"},
      {"measurement": "Ulnar N CMAP", "setting": "neonatal subject; 1 week", "value": 4.6, "unit": "mV"},
      {"measurement": "Ulnar nerve CMAP relative to NURTURE median 2.3 mV", "setting": "neonatal subject; 1 week", "value": 2, "unit": "fold"},
      {"measurement": "MUNE (Ulnar N)", "setting": "neonatal subject; 6 weeks", "value": 313},
      {"measurement": "Peroneal N CMAP", "setting": "neonatal subject; 6 weeks", "value": 3.5, "unit": "mV"},
      {"measurement": "Ulnar N CMAP", "setting": "neonatal subject; 6 weeks", "value": 5.8, "unit": "mV"},
      {"measurement": "Ulnar nerve CMAP relative to NURTURE median 2.3 mV", "setting": "neonatal subject; 6 weeks", "value": 2.5, "unit": "fold"},
      {"measurement": "MUNE (Ulnar N)", "setting": "neonatal subject; 18 weeks", "value": 296},
      {"measurement": "Ulnar N CMAP", "setting": "neonatal subject; 18 weeks", "value": 7.1, "unit": "mV"}
    ]}
  ]
}
